From patent publication US11701359B2, “Exon 18 and/or exon 21 mutant EGFR selective inhibitor” (priority 2017, dated 2023)
pIC50: −log10 of the molar value. Like-named read-outs stand apart in the source and are kept apart here.

Experiments:
[1] = test system: NIH3T3-EGFR G719A cells; assay: Antitumor effect on mouse model subcutaneously transplanted with G719A mutant EGFR-expressing cell line; conditions: nude mice
Description: (§1) The maximum tolerated dose was determined in accordance with the “Guidelines Involving Experimental Neoplasia Proposals in Mice and Rats” of the National Cancer Institute (NCI), from a humanitarian perspective.
(§2) To compare the changes in growth of tumor over time due to administration of the individual test compounds, the tumor volume (which may be hereinafter referred to as “TV”) was used as an index. For a toxicity index, the body weight was measured over time, and the body weight change (which may be hereinafter referred to as “BWC (%)”) from the day on which the mice were divided into groups was calculated in accordance with the following formula. BWC (%)=(the body weight measured on body weight measurement day)/(the body weight on the day mice were divided into groups)
(§3) T/C (%)=(the average TV of the group administered with a test compound)/(the average TV of the control group)×100

[2] = as above; conditions: nude, mouse, in vivo, po
Description: as §1, §2, §3

[3] = target: T1, human EGFR L861Q (Homo sapiens, UniProt P00533, L861Q); assay: Intracellular EGFR phosphorylation in mutant EGFR forced expression system using HEK293 cells; format: cell-based; conditions: HEK293 cells expressing human EGFR L861Q, 6 hours; read-out: IC50, phosphorylated EGFR inhibition, L861Q
T1 construct: expressed in transfected cells; host or cells: Jump-In Grip HEK293 cells (Thermo Fisher Scientific), pJTI R4 DEST CMV pA vector

[4] = test system: Ba/F3-EGFR L861Q+T790M cells; assay: Cell growth inhibitory effect, L861Q+T790M mutant EGFR-expressing Ba/F3 cell line (CellTiter-Glo); format: cell-based, mouse; conditions: for IC50: Mus musculus, 72 h, read-out: IC50 (nM) L861Q + T790M
Description: (§4) These solutions were then added to each well of the culture plate of the cells, and incubated in a 5% CO2 gas-containing incubator at 37° C. for 3 days. The cell count after incubation was measured using a CellTiter-Glo (trademark) Luminescent Cell Viability Assay (Promega Corporation), in accordance with the manufacturer's recommended protocol.

[5] = test system: Ba/F3-EGFR G719A cells; assay: Cell growth inhibitory effect, G719A mutant EGFR-expressing Ba/F3 cell line (CellTiter-Glo); format: cell-based, mouse; conditions: for IC50: Mus musculus, 72 h, read-out: IC50 (nM) G719A
Description: (§5) Evaluation of Cell Growth Inhibitory Effect Against Wild-Type EGFR- and Mutant EGFR-Expressing Cell Line (In Vitro)
(§6) The inhibitory activity of compounds against wild-type EGFR and mutant EGFR was evaluated using Ba/F3 cells, which are mouse B-lymphocyte precursor cell line to which a human EGFR gene was introduced.
(§7) The solutions were then added to each well of the culture plate of the cells, and the cells were incubated in a 5% CO2 gas-containing incubator at 37° C. for 3 days. The cell count after incubation was measured by a CellTiter-Glo (trademark) Luminescent Cell Viability Assay (Promega Corporation) in accordance with the manufacturer's recommended protocol.

[6] = target: T2, human EGFR G719S (Homo sapiens, UniProt P00533, G719S); assay: Intracellular EGFR phosphorylation in mutant EGFR forced expression system using HEK293 cells; format: cell-based; conditions: HEK293 cells expressing human EGFR G719S, 6 hours; read-out: IC50, phosphorylated EGFR inhibition, G719S
T2 construct: expressed in transfected cells; host or cells: Jump-In Grip HEK293 cells (Thermo Fisher Scientific), pJTI R4 DEST CMV pA vector
T2 sequence (P00533 25-1210 G719S): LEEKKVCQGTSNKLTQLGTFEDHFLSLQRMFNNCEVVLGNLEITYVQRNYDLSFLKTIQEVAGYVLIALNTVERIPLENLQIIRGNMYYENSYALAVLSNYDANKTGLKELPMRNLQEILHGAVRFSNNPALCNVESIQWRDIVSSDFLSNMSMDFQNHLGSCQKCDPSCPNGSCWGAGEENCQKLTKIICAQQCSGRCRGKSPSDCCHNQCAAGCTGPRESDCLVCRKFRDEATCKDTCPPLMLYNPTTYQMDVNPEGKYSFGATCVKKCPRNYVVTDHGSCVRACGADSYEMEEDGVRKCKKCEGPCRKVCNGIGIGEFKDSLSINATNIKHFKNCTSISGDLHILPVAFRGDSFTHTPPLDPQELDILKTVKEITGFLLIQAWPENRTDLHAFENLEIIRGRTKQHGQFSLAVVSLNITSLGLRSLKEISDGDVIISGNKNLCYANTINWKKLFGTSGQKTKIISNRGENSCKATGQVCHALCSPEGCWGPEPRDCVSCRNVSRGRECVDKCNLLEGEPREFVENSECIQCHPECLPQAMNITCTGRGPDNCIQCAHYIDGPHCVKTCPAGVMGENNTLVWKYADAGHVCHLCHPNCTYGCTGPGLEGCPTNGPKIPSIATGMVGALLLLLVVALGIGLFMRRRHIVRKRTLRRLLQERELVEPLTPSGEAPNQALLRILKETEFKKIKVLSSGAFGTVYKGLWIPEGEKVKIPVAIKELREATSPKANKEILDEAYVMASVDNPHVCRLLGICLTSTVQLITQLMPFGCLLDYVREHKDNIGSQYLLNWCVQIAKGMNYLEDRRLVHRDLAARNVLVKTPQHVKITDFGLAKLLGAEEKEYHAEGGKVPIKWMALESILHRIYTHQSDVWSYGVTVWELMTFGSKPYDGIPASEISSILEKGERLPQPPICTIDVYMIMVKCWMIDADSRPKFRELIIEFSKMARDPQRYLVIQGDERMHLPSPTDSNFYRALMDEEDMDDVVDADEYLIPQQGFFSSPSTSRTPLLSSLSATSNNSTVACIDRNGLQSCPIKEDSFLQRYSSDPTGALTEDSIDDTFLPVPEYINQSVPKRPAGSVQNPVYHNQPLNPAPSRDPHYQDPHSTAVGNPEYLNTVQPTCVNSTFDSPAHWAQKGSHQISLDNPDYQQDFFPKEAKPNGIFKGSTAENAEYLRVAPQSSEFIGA

[7] = target: T3, human EGFR G719A+T790M (Homo sapiens, UniProt P00533, G719A/T790M); assay: as above; format: cell-based; conditions: HEK293 cells expressing human EGFR G719A+T790M, 6 hours; read-out: IC50, phosphorylated EGFR inhibition, G719A + T790M
T3 construct: expressed in transfected cells; host or cells: Jump-In Grip HEK293 cells (Thermo Fisher Scientific), pJTI R4 DEST CMV pA vector
T3 sequence (P00533 25-1210 G719A/T790M): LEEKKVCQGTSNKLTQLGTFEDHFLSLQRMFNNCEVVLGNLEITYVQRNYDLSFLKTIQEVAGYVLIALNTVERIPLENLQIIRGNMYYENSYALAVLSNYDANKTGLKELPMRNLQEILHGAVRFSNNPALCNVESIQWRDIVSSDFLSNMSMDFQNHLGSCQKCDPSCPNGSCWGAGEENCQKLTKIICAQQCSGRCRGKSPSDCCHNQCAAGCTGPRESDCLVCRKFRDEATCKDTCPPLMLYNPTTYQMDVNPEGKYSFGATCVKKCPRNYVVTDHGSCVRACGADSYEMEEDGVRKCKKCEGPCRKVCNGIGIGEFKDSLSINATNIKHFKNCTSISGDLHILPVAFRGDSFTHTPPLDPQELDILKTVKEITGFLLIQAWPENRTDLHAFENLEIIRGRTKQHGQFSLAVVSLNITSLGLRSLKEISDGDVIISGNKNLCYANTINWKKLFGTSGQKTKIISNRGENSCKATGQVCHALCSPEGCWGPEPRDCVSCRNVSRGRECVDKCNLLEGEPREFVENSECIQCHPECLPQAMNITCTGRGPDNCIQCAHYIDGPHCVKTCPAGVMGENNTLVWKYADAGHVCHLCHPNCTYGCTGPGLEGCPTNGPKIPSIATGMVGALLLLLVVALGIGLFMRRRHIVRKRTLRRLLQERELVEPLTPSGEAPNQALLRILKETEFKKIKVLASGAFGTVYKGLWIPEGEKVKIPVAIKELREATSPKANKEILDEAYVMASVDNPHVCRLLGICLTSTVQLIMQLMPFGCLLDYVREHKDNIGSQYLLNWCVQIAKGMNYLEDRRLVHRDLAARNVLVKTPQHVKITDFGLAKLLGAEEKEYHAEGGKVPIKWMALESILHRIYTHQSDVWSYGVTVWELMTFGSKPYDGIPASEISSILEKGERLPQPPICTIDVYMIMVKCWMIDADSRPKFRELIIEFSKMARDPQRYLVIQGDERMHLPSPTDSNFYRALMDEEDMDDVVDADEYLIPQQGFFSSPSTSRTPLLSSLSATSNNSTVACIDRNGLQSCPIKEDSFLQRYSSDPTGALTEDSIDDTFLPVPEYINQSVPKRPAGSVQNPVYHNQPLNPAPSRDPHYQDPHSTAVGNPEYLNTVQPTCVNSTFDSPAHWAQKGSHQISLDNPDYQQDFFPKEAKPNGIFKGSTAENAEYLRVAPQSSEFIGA

[8] = test system: NIH3T3-EGFR G719A+T790M cells; assay: in vivo; conditions: nude mice; for T/C (%): final evaluation day
Description: as §1
(§8) To compare the changes in growth of tumor over time due to administration of the individual test compounds, the tumor volume (which may be hereinafter referred to as “TV”) was used as an index. […] For a toxicity index, the body weight was measured over time, and the body weight change (which may be hereinafter referred to as “BWC (%)”) from the day on which the mice were divided into groups was calculated in accordance with the following formula. […] BWC (%)=(the body weight measured on body weight measurement day)/(the body weight on the day mice were divided into groups)
(§9) A Dunnett's test was performed using the average TV on the final evaluation day as an index. […] T/C (%)=(the average TV of the group administered with a test compound)/(the average TV of the control group)×100

[9] = in vivo; conditions: mouse, in vivo; nude mice, oral once daily, 14 days, G719A+T790M model; read-out: Maximum tolerated dose (weight loss during dosing period less than 20%)
Description: as §1, §8, §9

[10] = test system: Ba/F3-EGFR_WT cells; assay: Cell growth inhibitory effect, wild-type EGFR-expressing Ba/F3 cell line (CellTiter-Glo); format: cell-based; conditions: Mus musculus, BaF3, 72 h, read-out: IC50 (nM) WT
Description: as §5, §6, §7

[11] = target: T4, human EGFR E709K (Homo sapiens, UniProt P00533, E709K); assay: Intracellular EGFR phosphorylation in mutant EGFR forced expression system using HEK293 cells; format: cell-based; conditions: HEK293 cells expressing human EGFR E709K, 6 hours; read-out: IC50, phosphorylated EGFR inhibition, E709K
T4 construct: expressed in transfected cells; host or cells: Jump-In Grip HEK293 cells (Thermo Fisher Scientific), pJTI R4 DEST CMV pA vector
T4 sequence (P00533 25-1210 E709K): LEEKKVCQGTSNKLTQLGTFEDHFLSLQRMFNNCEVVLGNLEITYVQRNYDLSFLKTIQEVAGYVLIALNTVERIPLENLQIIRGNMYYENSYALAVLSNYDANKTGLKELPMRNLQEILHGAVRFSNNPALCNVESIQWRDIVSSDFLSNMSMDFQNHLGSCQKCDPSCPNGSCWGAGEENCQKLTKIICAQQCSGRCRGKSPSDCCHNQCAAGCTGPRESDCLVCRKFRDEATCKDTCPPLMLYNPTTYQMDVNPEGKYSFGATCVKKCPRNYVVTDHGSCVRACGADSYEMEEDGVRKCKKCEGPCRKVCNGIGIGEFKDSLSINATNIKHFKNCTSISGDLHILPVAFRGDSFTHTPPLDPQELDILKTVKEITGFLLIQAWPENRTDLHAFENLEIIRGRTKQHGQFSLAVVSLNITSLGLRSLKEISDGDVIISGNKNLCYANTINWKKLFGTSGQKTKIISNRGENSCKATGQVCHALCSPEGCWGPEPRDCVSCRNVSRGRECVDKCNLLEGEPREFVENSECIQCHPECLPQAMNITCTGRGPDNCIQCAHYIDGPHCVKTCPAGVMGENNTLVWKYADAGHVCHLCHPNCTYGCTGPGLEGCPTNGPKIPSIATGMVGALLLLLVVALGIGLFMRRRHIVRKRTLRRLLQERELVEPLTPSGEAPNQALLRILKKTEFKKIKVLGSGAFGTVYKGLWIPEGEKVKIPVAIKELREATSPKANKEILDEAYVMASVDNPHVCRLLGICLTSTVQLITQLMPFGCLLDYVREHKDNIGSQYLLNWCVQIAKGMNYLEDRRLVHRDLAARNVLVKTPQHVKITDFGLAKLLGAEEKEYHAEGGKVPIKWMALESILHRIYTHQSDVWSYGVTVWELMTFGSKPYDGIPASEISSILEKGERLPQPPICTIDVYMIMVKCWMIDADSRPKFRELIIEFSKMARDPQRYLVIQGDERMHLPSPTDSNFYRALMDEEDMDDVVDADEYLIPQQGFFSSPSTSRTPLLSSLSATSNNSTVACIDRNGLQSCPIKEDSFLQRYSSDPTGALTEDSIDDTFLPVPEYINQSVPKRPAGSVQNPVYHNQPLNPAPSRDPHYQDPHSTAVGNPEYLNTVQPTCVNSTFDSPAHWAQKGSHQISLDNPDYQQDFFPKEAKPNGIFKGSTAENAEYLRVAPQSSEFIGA

[12] = target: T5, human EGFR G719A (Homo sapiens, UniProt P00533, G719A); assay: as above; format: cell-based; conditions: HEK293 cells expressing human EGFR G719A, 6 hours; read-out: IC50, phosphorylated EGFR inhibition, G719A
T5 construct: expressed in transfected cells; host or cells: Jump-In Grip HEK293 cells (Thermo Fisher Scientific), pJTI R4 DEST CMV pA vector

[13] = test system: Ba/F3-EGFR G719A+T790M cells; assay: Cell growth inhibitory effect, G719A+T790M mutant EGFR-expressing Ba/F3 cell line (CellTiter-Glo); format: cell-based, mouse; conditions: for IC50: Mus musculus, 72 h, read-out: IC50 (nM) G719A + T790M
Description: as §4

[14] = target: T6, human EGFR G719C (Homo sapiens, UniProt P00533, G719C); assay: Intracellular EGFR phosphorylation in mutant EGFR forced expression system using HEK293 cells; format: cell-based; conditions: HEK293 cells expressing human EGFR G719C, 6 hours; read-out: IC50, phosphorylated EGFR inhibition, G719C
T6 construct: expressed in transfected cells; host or cells: Jump-In Grip HEK293 cells (Thermo Fisher Scientific), pJTI R4 DEST CMV pA vector

[15] = target: T7, human EGFR L861Q+T790M (Homo sapiens, UniProt P00533, L861Q/T790M); assay: as above; format: cell-based; conditions: HEK293 cells expressing human EGFR L861Q+T790M, 6 hours; read-out: IC50, phosphorylated EGFR inhibition, L861Q + T790M
T7 construct: expressed in transfected cells; host or cells: Jump-In Grip HEK293 cells (Thermo Fisher Scientific), pJTI R4 DEST CMV pA vector
T7 sequence (P00533 25-1210 T790M/L861Q): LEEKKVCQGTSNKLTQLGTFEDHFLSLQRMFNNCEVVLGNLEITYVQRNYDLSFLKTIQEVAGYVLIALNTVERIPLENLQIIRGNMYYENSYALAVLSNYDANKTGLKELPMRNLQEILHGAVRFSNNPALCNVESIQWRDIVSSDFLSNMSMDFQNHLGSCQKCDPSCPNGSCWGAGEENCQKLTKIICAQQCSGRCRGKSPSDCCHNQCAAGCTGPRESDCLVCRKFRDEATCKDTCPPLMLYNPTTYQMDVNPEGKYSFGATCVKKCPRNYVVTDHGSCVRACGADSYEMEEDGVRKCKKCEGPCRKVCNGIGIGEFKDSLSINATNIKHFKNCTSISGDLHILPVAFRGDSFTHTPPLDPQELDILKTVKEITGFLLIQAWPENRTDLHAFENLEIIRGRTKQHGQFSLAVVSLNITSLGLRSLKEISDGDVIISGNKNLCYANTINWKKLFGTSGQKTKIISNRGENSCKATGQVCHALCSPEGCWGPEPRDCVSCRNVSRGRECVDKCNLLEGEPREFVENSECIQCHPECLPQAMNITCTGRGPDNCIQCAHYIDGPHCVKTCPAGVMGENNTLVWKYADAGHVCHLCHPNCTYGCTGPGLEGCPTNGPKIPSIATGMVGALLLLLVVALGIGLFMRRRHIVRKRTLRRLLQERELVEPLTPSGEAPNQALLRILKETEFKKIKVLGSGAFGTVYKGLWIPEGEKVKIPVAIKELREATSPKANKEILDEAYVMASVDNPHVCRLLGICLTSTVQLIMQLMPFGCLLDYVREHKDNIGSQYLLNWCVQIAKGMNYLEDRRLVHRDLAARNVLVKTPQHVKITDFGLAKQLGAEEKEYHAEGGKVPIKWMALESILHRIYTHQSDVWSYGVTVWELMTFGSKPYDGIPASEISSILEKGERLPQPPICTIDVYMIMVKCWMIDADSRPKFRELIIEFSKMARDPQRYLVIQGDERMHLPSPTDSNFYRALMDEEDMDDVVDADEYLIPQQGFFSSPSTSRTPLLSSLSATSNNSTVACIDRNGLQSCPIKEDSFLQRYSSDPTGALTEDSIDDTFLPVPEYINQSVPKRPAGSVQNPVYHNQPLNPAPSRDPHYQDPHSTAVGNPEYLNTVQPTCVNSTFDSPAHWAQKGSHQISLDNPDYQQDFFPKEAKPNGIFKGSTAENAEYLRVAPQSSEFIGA

[16] = target: T8, human EGFR E709A (Homo sapiens, UniProt P00533, E709A); assay: as above; format: cell-based; conditions: HEK293 cells expressing human EGFR E709A, 6 hours; read-out: IC50, phosphorylated EGFR inhibition, E709A
T8 construct: expressed in transfected cells; host or cells: Jump-In Grip HEK293 cells (Thermo Fisher Scientific), pJTI R4 DEST CMV pA vector

[17] = test system: Ba/F3-EGFR L861Q cells; assay: Cell growth inhibitory effect, L861Q mutant EGFR-expressing Ba/F3 cell line (CellTiter-Glo); format: cell-based, mouse; conditions: for IC50: Mus musculus, 72 h, read-out: IC50 (nM) L861Q
Description: as §5, §6, §7

C=CC(=O)N[C@H]1C=C(C)c2c(-c3cnc4ccccc4c3)c3c(N)ncnc3n2C1 [Compound A, (S)-N-(4-amino-6-methyl-5-(quinolin-3-yl)-8,9-dihydropyrimido[5,4-b]indolizin-8-yl)acrylamide]
Symptoms (weight loss, abnormal feces, abnormal skin) ([1]; NIH3T3-EGFR G719A model, oral once daily 14 days, FIG. 2): did not show symptoms | Antitumor effect (tumor volume) ([1]; NIH3T3-EGFR G719A subcutaneous, oral once daily 14 days, 50, 100, 200 mg/kg/day, FIG. 1): remarkable antitumor effect | MTD at 14 days [2]: 200 mg/kg/day | pIC50 [3]: 4.39 | IC50 Ratio WT/L861Q + T790M ([4]; IC50 (WT)/IC50 (L861Q+T790M), Ba/F3 cells): 15.9 | IC50 ([4]; Ba/F3 cells with human EGFR L861Q+T790M, no EGF, 3 days): 37.5 nM | IC50 Ratio WT/G719A ([5]; IC50 (WT)/IC50 (G719A), Ba/F3 cells): 66.4 | IC50 ([5]; Ba/F3 cells with human EGFR G719A, no EGF, 3 days): 9 nM | pIC50 [6]: 4.64 | pIC50 [7]: 4.50 | T/C (%) ([8]; 50 mg/kg, oral once daily): 47.7% | T/C (%) ([8]; 100 mg/kg, oral once daily): 36.4% | T/C (%) ([8]; 200 mg/kg, oral once daily): 28.0% | Symptoms (weight loss, abnormal feces, abnormal skin) ([8]; NIH3T3-EGFR G719A+T790M model, oral once daily, FIG. 4): without symptoms such as serious weight loss | Antitumor effect (tumor volume) ([8]; NIH3T3-EGFR G719A+T790M subcutaneous, oral once daily, 50, 100, 200 mg/kg/day, FIG. 3): significant antitumor effect | MTD at 14 days [9]: 200 mg/kg/day | IC50 ([10]; Ba/F3 cells with human wild-type EGFR, 50 ng/mL EGF, 3 days): 597 nM | pIC50 [11]: 4.07 | pIC50 [12]: 4.69 | IC50 Ratio WT/G719A + T790M ([13]; IC50 (WT)/IC50 (G719A+T790M), Ba/F3 cells): 37.9 | IC50 ([13]; Ba/F3 cells with human EGFR G719A+T790M, no EGF, 3 days): 15.8 nM | pIC50 [14]: 5.03 | pIC50 [15]: 4.09 | pIC50 [16]: 3.99 | IC50 Ratio WT/L861Q ([17]; IC50 (WT)/IC50 (L861Q), Ba/F3 cells): 31.4 | IC50 ([17]; Ba/F3 cells with human EGFR L861Q, no EGF, 3 days): 19 nM

C=CC(=O)Nc1cc(Nc2nccc(-c3cn(C)c4ccccc34)n2)c(OC)cc1N(C)CCN(C)C [Osimertinib, osimertinib, reference compound]
IC50 ([4]; Ba/F3 EGFR): 36.4 nM | IC50 ([5]; Ba/F3 EGFR): 209 nM | IC50 [10]: 379 nM | IC50 ([13]; Ba/F3 EGFR): 89.4 nM | IC50 ([17]; Ba/F3 EGFR): 47 nM
